Data set [1] is described as follows: Microsomal stability screen, human. The settings on record: 1 μM.
Data set [2] in a line: Microsomal stability screen, mouse. The settings on record: 1 μM.
Another data set deals with T1, SIRT2 (Homo sapiens, UniProt Q8IXJ6).
T1 construct: recombinant active enzymes SIRT1, SIRT2, and the catalytically active fragment of SIRT3
T1 sequence (Q8IXJ6 1-389): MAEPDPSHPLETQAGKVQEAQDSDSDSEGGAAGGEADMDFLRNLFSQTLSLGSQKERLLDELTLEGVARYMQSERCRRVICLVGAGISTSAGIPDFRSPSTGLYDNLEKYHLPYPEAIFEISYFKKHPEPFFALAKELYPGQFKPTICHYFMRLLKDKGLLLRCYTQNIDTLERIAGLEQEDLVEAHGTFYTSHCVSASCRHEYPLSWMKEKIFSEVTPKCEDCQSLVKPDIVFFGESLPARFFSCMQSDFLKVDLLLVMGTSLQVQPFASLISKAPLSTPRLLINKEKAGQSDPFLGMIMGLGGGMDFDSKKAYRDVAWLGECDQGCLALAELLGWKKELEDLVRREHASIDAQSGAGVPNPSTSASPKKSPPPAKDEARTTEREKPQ
In words: Fluor-de-Lys biochemical sirtuin deacetylation assay, SIRT2. Particulars: 10 μM.

As for `CN(c1ccc(F)cc1)S(=O)(=O)c1cccc(C(=O)Nc2ccc(C#N)cc2)c1` [Compound 47, N-(4-Cyanophenyl)-3-(N-(4-fluorophenyl)-N-methylsulfamoyl)benzamide], in data set [1], the “Mean remaining parent NADPH-free (%)” value was 89% and the “Mean remaining parent with NADPH (%)” value is recorded as 16%.
For the compound `CN(c1ccc(Cl)cc1)S(=O)(=O)c1cccc(C(=O)Nc2ccc(C#N)cn2)c1` [Compound 71, 3-(N-(4-Chlorophenyl)-N-methylsulfamoyl)-N-(5-cyanopyridin-2-yl)benzamide], in data set [2], the “Mean remaining parent NADPH-free (%)” value was 96% and the “Mean remaining parent with NADPH (%)” value worked out at 1%. Moreover, in data set [1], the “Mean remaining parent NADPH-free (%)” value is reported as 91% and the “Mean remaining parent with NADPH (%)” value amounted to 2%.
Taken in the same sequence, the figures for `CC(=O)c1ccc(N(C)S(=O)(=O)c2cccc(C(=O)Nc3ccc(Cl)cc3)c2)cc1` [Compound 102, 3-(N-(4-Acetylphenyl)-N-methylsulfamoyl)-N-(4-chlorophenyl)benzamide] were 108%, 0%, 94% and 12%.
As usually defined, the melting point is the temperature, or range, at which the solid turns liquid. Usually inhibition stands for the relative decrease from the control value, in per cent. The low end stands for little suppression, the high end for strong suppression. `COc1ccc(CSc2cc(C(=O)Nc3ccc(C#N)cc3)ccn2)cc1` [Compound 211f, N-(4-cyanophenyl)-2-((4-methoxybenzyl)thio)isonicotinamide] registered a melting point of 201 to 203 °C. This compound also displayed an inhibition at 10 µM at SIRT2 of 68%.
With `N#Cc1ccc(NC(=O)c2cccc(SCc3ccc(F)cc3)c2)cc1` [Compound 211g, N-(4-cyanophenyl)-3-((4-fluorobenzyl)thio)benzamide], the melting point was in the range of 148 to 150 °C. On SIRT2, this compound registered an inhibition at 10 µM of 59%.
As for `N#Cc1ccc(NC(=O)c2cccc(OCc3cccc(F)c3F)c2)cc1` [Compound 216Aa, N-(4-cyanophenyl)-3-((2,3-difluorobenzyl)oxy)benzamide], the melting point lay in the range of 149 to 150 °C. This compound displayed an inhibition at 10 µM against SIRT2 of 56%.
Compound `CC(=O)c1ccc(C(C)Oc2cncc(C(=O)Nc3ccc(C#N)cc3)c2)cc1` (stereo not shown) [Compound 216Ab, 5-(1-(4-acetylphenyl)ethoxy)-N-(4-cyanophenyl)nicotinamide] had a melting point of 181 to 183 °C. This compound registered an inhibition at 10 µM against SIRT2 of 84%.
Compound `CC(=O)c1ccc(C(C)Oc2cccc(C(=O)Nc3ccc(C#N)cc3)c2)cc1` (stereo not shown) [Compound 216Ac, 3-(1-(4-acetylphenyl)ethoxy)-N-(4-cyanophenyl)benzamide] displayed a melting point of 79 to 81 °C. On SIRT2, this compound returned an inhibition at 10 µM of 93%.
Take `N#Cc1ccc(NC(=O)c2cccc(OCc3cccc(F)c3)c2)cc1` [Compound 216Ad, N-(4-cyanophenyl)-3-((3-fluorobenzyl)oxy)benzamide]: the melting point lay within 142 to 143 °C. This compound came in with an inhibition at 10 µM at SIRT2 of 58%.
Turning to `N#Cc1ccc(NC(=O)c2cccc(OCc3cc(F)cc(F)c3)c2)cc1` [Compound 216Ae, N-(4-cyanophenyl)-3-((3,5-difluorobenzyl)oxy)benzamide], the melting point lay within 185 to 187 °C. The compound also had an inhibition at 10 µM against SIRT2 of 57%.
In turn, `CC(O)c1ccc(C(C)Oc2cncc(C(=O)Nc3ccc(C#N)cc3)c2)cc1` (stereo not shown) [Compound 216Af, N-(4-cyanophenyl)-5-(1-(4-(1-hydroxyethyl)phenyl)ethoxy)nicotinamide] yielded a melting point of 179 to 181 °C. At SIRT2, the inhibition at 10 µM is 12%.
In the case of `CSc1ccc(COc2cccc(C(=O)Nc3ccc(C#N)cc3)c2)cc1` [Compound 216a, N-(4-cyanophenyl)-3-((4-(methylthio)benzyl)oxy)benzamide], the melting point is 147 to 148 °C. For the same compound, at SIRT2, at 10 µM the inhibition was 60%.
On to `CSc1ccc(COc2cccc(C(=O)Nc3ccc(C#N)cn3)c2)cc1` [Compound 216b, N-(5-cyanopyridin-2-yl)-3-((4-(methylthio)benzyl)oxy)benzamide], for which the melting point is 146 to 147 °C. In addition, at 10 µM the inhibition on SIRT2 was 22%.
`COc1ccc(COc2cccc(C(=O)Nc3ccc(C#N)cc3)c2)cc1` [Compound 216c, N-(4-cyanophenyl)-3-((4-methoxybenzyl)oxy)benzamide] yielded a melting point of 147 to 148 °C. At SIRT2, this compound yielded an inhibition at 10 µM of 40%.
`COc1ccc(COc2cccc(C(=O)Nc3ccc(C#N)cn3)c2)cc1` [Compound 216d, N-(5-cyanopyridin-2-yl)-3-((4-methoxybenzyl)oxy)benzamide] had a melting point of 132 to 134 °C. The compound also showed an inhibition at 10 µM against SIRT2 of 8%.
Compound `C[S+]([O-])c1ccc(COc2cccc(C(=O)Nc3ccc(C#N)cc3)c2)cc1` (stereo not shown) [Compound 216e] yielded a melting point of 174 to 175 °C. The same compound registered an inhibition at 10 µM at SIRT2 of 32%.
`COc1ccc(COc2cccc(C(=O)Nc3ccc(S(C)(=O)=O)cc3)c2)cc1` [Compound 216f, 3-((4-methoxybenzyl)oxy)-N-(4-(methylsulfonyl)phenyl)benzamide] had a melting point of 173 to 174 °C. Also, the inhibition at 10 µM on SIRT2 was determined as 36%.
Compound `N#Cc1ccc(NC(=O)c2cccc(OCc3ccc(F)cc3)c2)cc1` [Compound 216g, N-(4-cyanophenyl)-3-((4-fluorobenzyl)oxy)benzamide] returned a melting point of 149 to 150 °C. The inhibition at 10 µM on SIRT2 came out at 64%.
In turn, `COc1ccc(COc2cccc(C(=O)Nc3ccc([S+](C)[O-])cc3)c2)cc1` (stereo not shown) [Compound 216h, 3-((4-methoxybenzyl)oxy)-N-(4-(methylsulfinyl)phenyl)benzamide] registered a melting point of 135 to 136 °C. This compound also had an inhibition at 10 µM at SIRT2 of 50%.
`N#Cc1ccc(NC(=O)c2cccc(OCc3ccc(F)cc3)c2)nc1` [Compound 216i, N-(5-cyanopyridin-2-yl)-3-((4-fluorobenzyl)oxy)benzamide] came in with a melting point of 170 to 171 °C. Besides, the inhibition at 10 µM on SIRT2 came out at 15%.
Turning to `N#Cc1ccc(NC(=O)c2cccc(OCc3ccc(C(F)(F)F)cc3)c2)cc1` [Compound 216j, N-(4-cyanophenyl)-3-((4-(trifluoromethyl)benzyl)oxy)benzamide], the melting point was in the range of 167 to 168 °C. The same compound yielded an inhibition at 10 µM on SIRT2 of 67%.
Taken in the same sequence, the figures for `CS(=O)(=O)c1ccc(COc2cccc(C(=O)Nc3ccc(C#N)cc3)c2)cc1` [Compound 216k, N-(4-cyanophenyl)-3-((4-(methylsulfonyl)benzyl)oxy)benzamide] were 209 to 210 °C and 39%.
`N#Cc1ccc(NC(=O)c2cccc(OCc3ccc(OC(F)(F)F)cc3)c2)cc1` [Compound 216m, N-(4-cyanophenyl)-3-((4-(trifluoromethoxy)benzyl)oxy)benzamide] returned a melting point of 138 to 139 °C. Moreover, on SIRT2, the inhibition at 10 µM worked out at 56%.
Taken in the same sequence, the figures for `N#Cc1ccc(NC(=O)c2cccc(OCc3ccc(Cl)cn3)c2)cc1` [Compound 216n, 3-((5-chloropyridin-2-yl)methoxy)-N-(4-cyanophenyl)benzamide] were 168 to 169 °C and 34%.
`N#Cc1ccc(COc2cccc(C(=O)Nc3ccc(C#N)cc3)c2)cc1` [Compound 216q, 3-((4-cyanobenzyl)oxy)-N-(4-cyanophenyl)benzamide] gave a melting point of 205 to 207 °C. Besides, the inhibition at 10 µM on SIRT2 was 56%.
Compound `C[C@@H](Oc1cncc(C(=O)Nc2ccc(C#N)cc2)c1)c1ccc(F)cc1` [Compound 216r, (R)—N-(4-cyanophenyl)-5-(1-(4-fluorophenyl)ethoxy)nicotinamide] yielded a melting point of 151 to 152 °C. The same compound had an inhibition at 10 µM at SIRT2 of 69%.
In the case of `C[C@H](Oc1cncc(C(=O)Nc2ccc(C#N)cc2)c1)c1ccc(F)cc1` [Compound 216s, (S)—N-(4-cyanophenyl)-5-(1-(4-fluorophenyl)ethoxy)nicotinamide], the melting point lay within 152 to 153 °C. 10 µM produced 27% inhibition at SIRT2.
Taken in the same sequence, the figures for `N#Cc1ccc(COc2cncc(C(=O)Nc3ccc(C#N)cc3)c2)cc1` [Compound 216t, 5-((4-cyanobenzyl)oxy)-N-(4-cyanophenyl)nicotinamide] were 266 to 268 °C (dec.) and 0%.
As for `CC(=O)c1ccc(COc2cncc(C(=O)Nc3ccc(C#N)cc3)c2)cc1` [Compound 216u, 5-((4-acetylbenzyl)oxy)-N-(4-cyanophenyl)nicotinamide], the melting point is 228 to 229 °C (dec.). On SIRT2, the inhibition at 10 µM turned out to be 0%.
`N#Cc1ccc(COc2cc(O)cc(C(=O)Nc3ccc(C#N)cc3)c2)cc1` [Compound 216w, 3-((4-cyanobenzyl)oxy)-N-(4-cyanophenyl)-5-hydroxybenzamide] yielded a melting point of 199 to 201 °C. This compound also showed an inhibition at 10 µM on SIRT2 of 15%.
Taken in the same sequence, the figures for `N#Cc1ccc(NC(=O)c2cccc(OCc3ccc(F)c(F)c3)c2)cc1` [Compound 216z, N-(4-cyanophenyl)-3-((3,4-difluorobenzyl)oxy)benzamide] were 173 to 174 °C and 64%.
In turn, `N#Cc1ccc(NC(=O)c2cccc(NCc3ccc(F)cc3)c2)cc1` [Compound 221a, N-(4-cyanophenyl)-3-((4-fluorobenzyl)amino)benzamide] gave a melting point of 173 to 174 °C. This compound returned an inhibition at 10 µM against SIRT2 of 41%.
`CN(Cc1ccc(F)cc1)c1cccc(C(=O)Nc2ccc(C#N)cc2)c1` [Compound 221c, N-(4-cyanophenyl)-3-((4-fluorobenzyl)(methyl)amino)benzamide] displayed a melting point of 176 to 177 °C. Further, the inhibition at 10 µM against SIRT2 came to 75%.

Values taken from patent US9890117B2, “Benzamide compounds and related methods of use” (Northwestern University, priority 2012, dated 2018).
